Measured values as given in BindingDB's records for patent US20240336593 (Lnnovstonetherapeutics, 2024).

target: Protein arginine N-methyltransferase 5 (Homo sapiens, UniProt O14744); test: Test on the inhibitory activity of the compounds of the invention against PRMT5 enzyme by radioisotopic method
Method: Test method: A 1× enzyme reaction buffer (10 mM Tris 8.0 (Sigma, Cat. No. T2694-1L), 0.01% Tween-20 (Sigma, Cat. No. P2287-100 ML), 1 mM DTT (Sigma, Cat. No. D0632-10G)) was prepared. […] SAM (PerkinElmer, Cat. No. NET155V001MC) were added to the 1×enzyme reaction buffer, to prepare a 25/15× mixed solution (PRMT5 final concentration: 5 nM, [3H] SAM final concentration: 0.3 μM). […] 25 µL of the reaction mixture was transferred into a FlashPlate (Streptavidin FlashPlate HTS PLUS, High Capacity, 384-well, Perkin Elmer, Cat. No. SMP410A001PK), and incubated at room temperature for 1 h. After washed three times with distilled water containing 0.1% Tween-20, the microplate was read on a MicroBeta reader for CPM data (Counts Per Minute). […] Then the inhibition rate Inh % (Y) corresponding to each concentration (X) was input in EXCEL, and the IC50 value (the half maximal inhibitory concentration) of each compound was calculated with the XLfit plug-in according to the built-in four-parameter fitting equation Y=Bottom+(Top-Bottom)/(1+(IC50/X)[…]).

Chain of Protein arginine N-methyltransferase 5 (O14744 whole entry): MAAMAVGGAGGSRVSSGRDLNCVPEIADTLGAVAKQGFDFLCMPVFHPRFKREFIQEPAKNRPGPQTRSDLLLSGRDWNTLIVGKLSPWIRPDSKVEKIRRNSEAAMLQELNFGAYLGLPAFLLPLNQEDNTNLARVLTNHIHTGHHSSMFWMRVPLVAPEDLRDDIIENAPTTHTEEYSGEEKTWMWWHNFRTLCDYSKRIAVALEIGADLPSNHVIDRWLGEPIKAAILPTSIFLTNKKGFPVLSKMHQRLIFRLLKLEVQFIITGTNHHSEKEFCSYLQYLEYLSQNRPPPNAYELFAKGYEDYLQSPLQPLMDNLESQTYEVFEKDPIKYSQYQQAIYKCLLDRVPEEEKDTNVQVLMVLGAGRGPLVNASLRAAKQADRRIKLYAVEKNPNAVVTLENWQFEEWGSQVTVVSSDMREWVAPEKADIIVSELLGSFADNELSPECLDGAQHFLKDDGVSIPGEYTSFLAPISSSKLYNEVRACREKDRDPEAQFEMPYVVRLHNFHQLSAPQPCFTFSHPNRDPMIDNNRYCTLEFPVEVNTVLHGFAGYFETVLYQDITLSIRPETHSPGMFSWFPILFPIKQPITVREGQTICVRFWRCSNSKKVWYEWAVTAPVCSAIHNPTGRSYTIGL

IC50, < 100 nM:
O=C(c1cc(NC2CCN(CCO)CC2)ncn1)N1CC[C@H](N2CCc3ccccc3C2)[C@@H](O)C1 [US20240336593, Example 122]
O=C(c1cc(NC2CCS(=O)(=O)CC2)ncn1)N1CC[C@H](N2CCc3ccccc3C2)[C@@H](O)C1 (relative stereo) [US20240336593, Example 135]
CO[C@H]1C[C@@H](Nc2cc(C(=O)N3CC[C@@H](N4CCc5ccccc5C4)[C@H](O)C3)nc(-c3ccccc3)n2)C1 [US20240336593, Example 146]
COCCCCNc1cc(C(=O)N2CC[C@@H](N3CCc4ccccc4C3)[C@H](O)C2)nc(-c2ccccc2)n1 [US20240336593, Example 148]
CS(=O)(=O)N1CCC(Nc2cc(C(=O)N3CC[C@H](O)[C@@H](N4CCc5ccccc5C4)CC3)ncn2)CC1 (relative stereo) [US20240336593, Example 130]
CS(=O)(=O)c1ccc(Nc2cc(C(=O)N3CC[C@H](N4CCc5ccccc5C4)[C@@H](O)C3)ncn2)cc1 (relative stereo) [US20240336593, Example 132]
COc1ccccc1Nc1cc(C(=O)N2CC[C@H](N3CCc4ccccc4C3)[C@@H](O)C2)ncn1 (relative stereo) [US20240336593, Example 105]
O=C(c1cc(NC2CCNCC2)ncn1)N1CC[C@H](N2CCc3ccccc3C2)[C@@H](O)C1 [US20240336593, Example 112]
CN1CCC(Nc2cc(C(=O)N3CC[C@H](N4CCc5ccccc5C4)[C@@H](O)C3)ncn2)CC1 (relative stereo) [US20240336593, Example 100]
N#CCC(=O)N1CCC(Nc2cc(C(=O)N3CC[C@H](N4CCc5ccccc5C4)[C@@H](O)C3)ncn2)CC1 [US20240336593, Example 143]
O=C(c1cc(NCC(F)F)nc(-n2ccnc2)n1)N1CCC(N2CCc3ccccc3C2)[C@H](O)C1 (some centres not stated) [US20240336593, Example 147]
CS(=O)(=O)c1cccc(Nc2cc(C(=O)N3CC[C@H](N4CCc5ccccc5C4)[C@@H](O)C3)ncn2)c1 (relative stereo) [US20240336593, Example 133]
CC(=O)N1CCC(Nc2cc(C(=O)N3CC[C@@H](N4CCc5ccccc5C4)[C@H](O)C3)nc(-c3cn[nH]c3)n2)CC1 [US20240336593, Example 145]
Cc1cccc(Nc2cc(N3CC[C@H](N4CCc5ccccc5C4)[C@@H](O)C3)ncn2)c1 (relative stereo) [US20240336593, Example 34]
CN1CCC(Nc2cc(C(=O)N3CC[C@H](O)[C@@H](N4CCc5ccccc5C4)CC3)ncn2)CC1 (relative stereo) [US20240336593, Example 129]
O=C(c1cc(NC2CCOCC2)ncn1)N1CC[C@H](O)[C@@H](N2CCc3ccccc3C2)CC1 (relative stereo) [US20240336593, Example 128]
O=C(c1cc(NC2CCN(CC(F)(F)F)CC2)ncn1)N1CC[C@H](N2CCc3ccccc3C2)[C@@H](O)C1 (relative stereo) [US20240336593, Example 121]
